# In ChEMBL document CHEMBL5724914, “Linking interpersonal differences in gut microbiota composition and drug biotransformation activity” (2024):
# Test: (§1) The drug is tested on Z-019 corresponding to rat gut metagenome with ENA study accession number: PRJEB37062 and ENA sample accession number: ERS12561818 for biotransformation under anaerobic condition. The drug concentrations were measured over 9 timepoints collected between 0 and 24 hours of incubation by liquid-chromatography-coupled mass spectrometry (LC–MS)
# Conditions: 2 µM
# Also: call rule not given here.
row,SMILES,Bacterial Biotransformation
1,CN1CCOC(c2ccccc2)c2ccccc2C1 (stereo not given) [NEFOPAM],Compound NOT metabolized
2,Cc1ccc(-c2nc3ccc(C)cn3c2CC(=O)N(C)C)cc1 [ZOLPIDEM],Compound NOT metabolized
3,Nc1nc2ccc(OC(F)(F)F)cc2s1 [RILUZOLE],Compound NOT metabolized
4,CC(C)NCC(O)c1ccc(NS(C)(=O)=O)cc1 (stereo not given) [SOTALOL],Compound NOT metabolized

# Test: as §1, with “on Z-017” for “on Z-019”, “to mouse” for “to rat”, “number: ERS12561816” for “number: ERS12561818”
# Conditions: 2 µM
row,SMILES,Bacterial Biotransformation
1,CN1CCOC(c2ccccc2)c2ccccc2C1 (stereo not given) [NEFOPAM],Compound NOT metabolized
2,Cc1ccc(-c2nc3ccc(C)cn3c2CC(=O)N(C)C)cc1 [ZOLPIDEM],Compound NOT metabolized
3,Nc1nc2ccc(OC(F)(F)F)cc2s1 [RILUZOLE],Compound NOT metabolized
4,CC(C)NCC(O)c1ccc(NS(C)(=O)=O)cc1 (stereo not given) [SOTALOL],Compound NOT metabolized

# Test: as §1, with “on Z-016” for “on Z-019”, “to mouse” for “to rat”, “number: ERS12561815” for “number: ERS12561818”
# Conditions: 2 µM
row,SMILES,Bacterial Biotransformation
1,CN1CCOC(c2ccccc2)c2ccccc2C1 (stereo not given) [NEFOPAM],Compound NOT metabolized
2,Cc1ccc(-c2nc3ccc(C)cn3c2CC(=O)N(C)C)cc1 [ZOLPIDEM],Compound NOT metabolized
3,Nc1nc2ccc(OC(F)(F)F)cc2s1 [RILUZOLE],Compound NOT metabolized
4,CC(C)NCC(O)c1ccc(NS(C)(=O)=O)cc1 (stereo not given) [SOTALOL],Compound NOT metabolized

# Test: as §1, with “Z-014” for “Z-019”, “ERS12561814” for “ERS12561818”
# Conditions: 2 µM
row,SMILES,Bacterial Biotransformation
1,CN1CCOC(c2ccccc2)c2ccccc2C1 (stereo not given) [NEFOPAM],Compound NOT metabolized
2,Cc1ccc(-c2nc3ccc(C)cn3c2CC(=O)N(C)C)cc1 [ZOLPIDEM],Compound NOT metabolized
3,Nc1nc2ccc(OC(F)(F)F)cc2s1 [RILUZOLE],Compound NOT metabolized
4,CC(C)NCC(O)c1ccc(NS(C)(=O)=O)cc1 (stereo not given) [SOTALOL],Compound NOT metabolized

# Test: as §1, with “on Z-013” for “on Z-019”, “to rabbit” for “to rat”, “number: ERS12561813” for “number: ERS12561818”
# Conditions: 2 µM
row,SMILES,Bacterial Biotransformation
1,CN1CCOC(c2ccccc2)c2ccccc2C1 (stereo not given) [NEFOPAM],Compound NOT metabolized
2,Cc1ccc(-c2nc3ccc(C)cn3c2CC(=O)N(C)C)cc1 [ZOLPIDEM],Compound NOT metabolized
3,Nc1nc2ccc(OC(F)(F)F)cc2s1 [RILUZOLE],Compound NOT metabolized
4,CC(C)NCC(O)c1ccc(NS(C)(=O)=O)cc1 (stereo not given) [SOTALOL],Compound NOT metabolized

# Test: as §1, with “Z-008” for “Z-019”, “to” for “to rat gut”, “ERS12561808” for “ERS12561818”
# Conditions: 2 µM
row,SMILES,Bacterial Biotransformation
1,CN1CCOC(c2ccccc2)c2ccccc2C1 (stereo not given) [NEFOPAM],Compound NOT metabolized
2,Cc1ccc(-c2nc3ccc(C)cn3c2CC(=O)N(C)C)cc1 [ZOLPIDEM],Compound NOT metabolized
3,Nc1nc2ccc(OC(F)(F)F)cc2s1 [RILUZOLE],Compound metabolized
4,CC(C)NCC(O)c1ccc(NS(C)(=O)=O)cc1 (stereo not given) [SOTALOL],Compound NOT metabolized

# Test: as §1, with “on WLS-310” for “on Z-019”, “to human” for “to rat”, “number: ERS12561785” for “number: ERS12561818”
# Conditions: 2 µM
row,SMILES,Bacterial Biotransformation
1,CN1CCOC(c2ccccc2)c2ccccc2C1 (stereo not given) [NEFOPAM],Compound NOT metabolized
2,Cc1ccc(-c2nc3ccc(C)cn3c2CC(=O)N(C)C)cc1 [ZOLPIDEM],Compound metabolized
3,Nc1nc2ccc(OC(F)(F)F)cc2s1 [RILUZOLE],Compound metabolized
4,CC(C)NCC(O)c1ccc(NS(C)(=O)=O)cc1 (stereo not given) [SOTALOL],Compound NOT metabolized

# Test: as §1, with “on WLS-220” for “on Z-019”, “to human” for “to rat”, “number: ERS12561769” for “number: ERS12561818”
# Conditions: 2 µM
row,SMILES,Bacterial Biotransformation
1,CN1CCOC(c2ccccc2)c2ccccc2C1 (stereo not given) [NEFOPAM],Compound metabolized
2,Cc1ccc(-c2nc3ccc(C)cn3c2CC(=O)N(C)C)cc1 [ZOLPIDEM],Compound metabolized
3,Nc1nc2ccc(OC(F)(F)F)cc2s1 [RILUZOLE],Compound metabolized
4,CC(C)NCC(O)c1ccc(NS(C)(=O)=O)cc1 (stereo not given) [SOTALOL],Compound NOT metabolized

# Test: as §1, with “on WLS-086” for “on Z-019”, “to human” for “to rat”, “number: ERS12561752” for “number: ERS12561818”
# Conditions: 2 µM
row,SMILES,Bacterial Biotransformation
1,CN1CCOC(c2ccccc2)c2ccccc2C1 (stereo not given) [NEFOPAM],Compound metabolized
2,Cc1ccc(-c2nc3ccc(C)cn3c2CC(=O)N(C)C)cc1 [ZOLPIDEM],Compound metabolized
3,Nc1nc2ccc(OC(F)(F)F)cc2s1 [RILUZOLE],Compound metabolized
4,CC(C)NCC(O)c1ccc(NS(C)(=O)=O)cc1 (stereo not given) [SOTALOL],Compound NOT metabolized

# Test: as §1, with “on WLS-073” for “on Z-019”, “to human” for “to rat”, “number: ERS12561749” for “number: ERS12561818”
# Conditions: 2 µM
row,SMILES,Bacterial Biotransformation
1,CN1CCOC(c2ccccc2)c2ccccc2C1 (stereo not given) [NEFOPAM],Compound NOT metabolized
2,Cc1ccc(-c2nc3ccc(C)cn3c2CC(=O)N(C)C)cc1 [ZOLPIDEM],Compound NOT metabolized
3,Nc1nc2ccc(OC(F)(F)F)cc2s1 [RILUZOLE],Compound metabolized
4,CC(C)NCC(O)c1ccc(NS(C)(=O)=O)cc1 (stereo not given) [SOTALOL],Compound NOT metabolized

# Test: as §1, with “on WLS-038” for “on Z-019”, “to human” for “to rat”, “number: ERS12561745” for “number: ERS12561818”
# Conditions: 2 µM
row,SMILES,Bacterial Biotransformation
1,CN1CCOC(c2ccccc2)c2ccccc2C1 (stereo not given) [NEFOPAM],Compound NOT metabolized
2,Cc1ccc(-c2nc3ccc(C)cn3c2CC(=O)N(C)C)cc1 [ZOLPIDEM],Compound NOT metabolized
3,Nc1nc2ccc(OC(F)(F)F)cc2s1 [RILUZOLE],Compound metabolized
4,CC(C)NCC(O)c1ccc(NS(C)(=O)=O)cc1 (stereo not given) [SOTALOL],Compound NOT metabolized

# Test: as §1, with “on WLS-007” for “on Z-019”, “to human” for “to rat”, “number: ERS12561742” for “number: ERS12561818”
# Conditions: 2 µM
row,SMILES,Bacterial Biotransformation
1,CN1CCOC(c2ccccc2)c2ccccc2C1 (stereo not given) [NEFOPAM],Compound metabolized
2,Cc1ccc(-c2nc3ccc(C)cn3c2CC(=O)N(C)C)cc1 [ZOLPIDEM],Compound NOT metabolized
3,Nc1nc2ccc(OC(F)(F)F)cc2s1 [RILUZOLE],Compound metabolized
4,CC(C)NCC(O)c1ccc(NS(C)(=O)=O)cc1 (stereo not given) [SOTALOL],Compound NOT metabolized

# Conditions: human gut metagenome, 24 h, 2 µM
row,SMILES,Bacterial Biotransformation
1,CN1CCOC(c2ccccc2)c2ccccc2C1 (stereo not given) [NEFOPAM],Compound NOT metabolized
2,Cc1ccc(-c2nc3ccc(C)cn3c2CC(=O)N(C)C)cc1 [ZOLPIDEM],Compound NOT metabolized
3,Nc1nc2ccc(OC(F)(F)F)cc2s1 [RILUZOLE],Compound NOT metabolized
4,CC(C)NCC(O)c1ccc(NS(C)(=O)=O)cc1 (stereo not given) [SOTALOL],Compound NOT metabolized

# Conditions: human gut metagenome, 24 h, 2 µM
# Remark: another data set of the same source
row,SMILES,Bacterial Biotransformation
1,CN1CCOC(c2ccccc2)c2ccccc2C1 (stereo not given) [NEFOPAM],Compound metabolized
2,Cc1ccc(-c2nc3ccc(C)cn3c2CC(=O)N(C)C)cc1 [ZOLPIDEM],Compound NOT metabolized
3,Nc1nc2ccc(OC(F)(F)F)cc2s1 [RILUZOLE],Compound NOT metabolized
4,CC(C)NCC(O)c1ccc(NS(C)(=O)=O)cc1 (stereo not given) [SOTALOL],Compound NOT metabolized

# Conditions: human gut metagenome, 24 h, 2 µM
# Remark: another data set of the same source
row,SMILES,Bacterial Biotransformation
1,CN1CCOC(c2ccccc2)c2ccccc2C1 (stereo not given) [NEFOPAM],Compound metabolized
2,Cc1ccc(-c2nc3ccc(C)cn3c2CC(=O)N(C)C)cc1 [ZOLPIDEM],Compound NOT metabolized
3,Nc1nc2ccc(OC(F)(F)F)cc2s1 [RILUZOLE],Compound NOT metabolized
4,CC(C)NCC(O)c1ccc(NS(C)(=O)=O)cc1 (stereo not given) [SOTALOL],Compound NOT metabolized

# Conditions: human gut metagenome, 24 h, 2 µM
# Remark: another data set of the same source
row,SMILES,Bacterial Biotransformation
1,CN1CCOC(c2ccccc2)c2ccccc2C1 (stereo not given) [NEFOPAM],Compound NOT metabolized
2,Cc1ccc(-c2nc3ccc(C)cn3c2CC(=O)N(C)C)cc1 [ZOLPIDEM],Compound NOT metabolized
3,Nc1nc2ccc(OC(F)(F)F)cc2s1 [RILUZOLE],Compound metabolized
4,CC(C)NCC(O)c1ccc(NS(C)(=O)=O)cc1 (stereo not given) [SOTALOL],Compound NOT metabolized

# Conditions: human gut metagenome, 24 h, 2 µM
# Remark: another data set of the same source
row,SMILES,Bacterial Biotransformation
1,CN1CCOC(c2ccccc2)c2ccccc2C1 (stereo not given) [NEFOPAM],Compound NOT metabolized
2,Cc1ccc(-c2nc3ccc(C)cn3c2CC(=O)N(C)C)cc1 [ZOLPIDEM],Compound NOT metabolized
3,Nc1nc2ccc(OC(F)(F)F)cc2s1 [RILUZOLE],Compound metabolized
4,CC(C)NCC(O)c1ccc(NS(C)(=O)=O)cc1 (stereo not given) [SOTALOL],Compound NOT metabolized

# Conditions: human gut metagenome, 24 h, 2 µM
# Remark: another data set of the same source
row,SMILES,Bacterial Biotransformation
1,CN1CCOC(c2ccccc2)c2ccccc2C1 (stereo not given) [NEFOPAM],Compound NOT metabolized
2,Cc1ccc(-c2nc3ccc(C)cn3c2CC(=O)N(C)C)cc1 [ZOLPIDEM],Compound NOT metabolized
3,Nc1nc2ccc(OC(F)(F)F)cc2s1 [RILUZOLE],Compound NOT metabolized
4,CC(C)NCC(O)c1ccc(NS(C)(=O)=O)cc1 (stereo not given) [SOTALOL],Compound NOT metabolized

# Conditions: human gut metagenome, 24 h, 2 µM
# Remark: another data set of the same source
row,SMILES,Bacterial Biotransformation
1,CN1CCOC(c2ccccc2)c2ccccc2C1 (stereo not given) [NEFOPAM],Compound metabolized
2,Cc1ccc(-c2nc3ccc(C)cn3c2CC(=O)N(C)C)cc1 [ZOLPIDEM],Compound metabolized
3,Nc1nc2ccc(OC(F)(F)F)cc2s1 [RILUZOLE],Compound metabolized
4,CC(C)NCC(O)c1ccc(NS(C)(=O)=O)cc1 (stereo not given) [SOTALOL],Compound NOT metabolized

# Conditions: human gut metagenome, 24 h, 2 µM
# Remark: another data set of the same source
row,SMILES,Bacterial Biotransformation
1,CN1CCOC(c2ccccc2)c2ccccc2C1 (stereo not given) [NEFOPAM],Compound metabolized
2,Cc1ccc(-c2nc3ccc(C)cn3c2CC(=O)N(C)C)cc1 [ZOLPIDEM],Compound NOT metabolized
3,Nc1nc2ccc(OC(F)(F)F)cc2s1 [RILUZOLE],Compound metabolized
4,CC(C)NCC(O)c1ccc(NS(C)(=O)=O)cc1 (stereo not given) [SOTALOL],Compound NOT metabolized
